One data set addresses T1, WT PXR (Homo sapiens, UniProt O75469).
T1 sequence (O75469 1-434): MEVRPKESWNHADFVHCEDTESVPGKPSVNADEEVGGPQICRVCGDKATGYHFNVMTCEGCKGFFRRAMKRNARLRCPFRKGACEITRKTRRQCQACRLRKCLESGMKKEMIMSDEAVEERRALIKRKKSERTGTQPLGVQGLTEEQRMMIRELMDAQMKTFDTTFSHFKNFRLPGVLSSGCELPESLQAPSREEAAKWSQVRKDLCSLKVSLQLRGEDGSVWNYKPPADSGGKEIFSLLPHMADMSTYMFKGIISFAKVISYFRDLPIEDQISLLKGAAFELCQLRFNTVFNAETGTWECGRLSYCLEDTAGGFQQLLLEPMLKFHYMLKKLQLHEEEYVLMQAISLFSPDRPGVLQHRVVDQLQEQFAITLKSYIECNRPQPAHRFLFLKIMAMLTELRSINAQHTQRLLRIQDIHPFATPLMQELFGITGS
As to the kind of experiment: Reporter gene assay (p3A4-pGL3, CYP3A4 promoter) in COS-1 cells expressing WT PXR. The note with it: 1 μM ligand, without PGC1α (Fig. S7). Background: A reporter such as luciferase makes a cellular process visible.

A further data set addresses T2, PXR-F420A (Homo sapiens, UniProt O75469, F420A).
T2 sequence (O75469 1-434 F420A): T1 sequence (O75469 1-434) with F420A
As to the kind of experiment: Reporter gene assay (p3A4-pGL3, CYP3A4 promoter) in COS-1 cells expressing PXR-F420A. The note with it: 1 μM ligand, without PGC1α (Fig. S7).

Residue numbers refer to the chain shown, from its start.

Method for PXR-F420A: (§1) COS-1 cells were cultured in Dulbecco's Modified Eagle medium (DMEM, Fujifilm Wako Pure Chemical) supplemented with 10% fetal bovine serum (FBS, GE Healthcare), MEM nonessential amino acids, and antibiotic-antimycotic (Thermo Fisher Scientific). Twenty-four hours after seeding, the culture medium was replaced with prewarmed DMEM without FBS, and plasmids were transfected with Lipofectamine 3000 (Thermo Fisher Scientific) according to the manufacturer’s instructions.
(§2) Firefly luciferase luminescence was normalized to Renilla luciferase luminescence.
Method for WT PXR: as §1, §2

For the molecule `Clc1ccccc1C(c1ccccc1)(c1ccccc1)n1ccnc1` [clotrimazole, Clotrimazole], on WT PXR, the “Induction of reporter activity, WT PXR” value is given as “weak induction”. Further, at PXR-F420A, the “Induction of reporter activity, PXR-F420A” value was “but not for PXR-F420A”.
